For 30 compounds, TGI and GI50 results are on record in PubChem BioAssay (NCI).

Values joined by “and” are separate entries in the source; they are usually repeats but may differ in a detail not shown here. Equal values may be shown once.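 Cultured in 96-well plates, cells were exposed to test compound for 48 hours across five concentrations. GI50 = concentration required for 50% inhibition of growth. Definition used: TGI = concentration required for complete inhibition of growth.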 Where a SMILES comes first, the peptide text is derived from it. [ ]: non-standard residue; d: D form. pGlu = O=C1CC[CH](C(=O)O)N1

Common to all, as to experiment: NCI tumour cell line growth inhibition, 48 h
The subject of assay [1] is EKVX NSCLC.
The subject of assay [2] is NCI-H226 lung.
The test system of assay [3] is NCI-H522 lung.
The subject of assay [4] is OVCAR-4 ovarian.
Assay [5] deals with RPMI-8226 leukemia.
Assay [6] concerns SF-268 CNS.
Assay [7] has as its system SK-MEL-2 melanoma.
Assay [8] deals with SW-620 colon.
Assay [9] concerns M14 melanoma.
Assay [10] deals with SR leukemia.

`O=C1OC(c2ccc(Cl)cc2)(c2ccc(Cl)cc2)c2c1ccc1ccccc21`: the TGI in assay [1], in assay [2], in assay [3], in [4], in assay [5] and in assay [6] was > 100 µM in each case. For the same compound, the TGI in assay [7] and in assay [8] was > 100 µM each time.
`CC(C)(C)c1cc(/C=C/C(=O)CC(=O)/C=C/c2cc(C(C)(C)C)c(O)c(C(C)(C)C)c2)cc(C(C)(C)C)c1O`: the TGI in assay [1], in assay [9], in [2], in assay [3], in assay [4] and in assay [5] was > 50 µM throughout. For the same compound, the TGI in assay [6], in [7] and in [8] was > 50 µM in each case.
Regarding `N/C(=N\N=C\c1cc2c(cc1Cl)OCO2)NO`, the TGI in assay [1] was > 100 µM; in assay [2], > 93.7 µM; in assay [3], > 100 µM; in assay [4], > 100 µM; in assay [5], > 72.8 µM; in [6], > 100 µM. For the same compound, the TGI in assay [7] was > 88.3 µM; in [8] it was > 100 µM.
For the compound `CCOC(=O)c1cn(CC)c2cc3c(cc2c1=O)CCS3(=O)=O`, the TGI in assay [1], in assay [9], in assay [2], in assay [6], in [7] and in [10] was > 100 µM in each case. Moreover, the TGI in assay [8] was > 100 µM.
For the compound `CN1CCN(/C(N)=C(\C#N)C(=O)Nc2ccccc2)CC1`, the TGI in [1], in assay [9], in assay [2], in [5], in [7] and in assay [10] was > 100 µM in each case. In assay [8], the TGI is > 100 µM.
As for `Cc1oncc1NC1=CC(=O)C(=O)c2ccccc21`, the TGI in [1] was 32.5 µM; in [9], 17 µM; in assay [2], 39.4 µM; in assay [3], 19.2 µM; in [4], 12.9 µM; in assay [6], 30.3 µM. Also, the TGI stood at 34.6 µM in assay [10] and 17.1 µM in assay [8].
`COC(=O)[C@@]12OC[C@]34C([C@@H](O)C1O)[C@@]1(C)CC(=O)C(O)=C(C)C1C[C@H]3OC(=O)[C@H](OC(=O)/C=C(/c1ccccc1)C(F)(F)F)[C@H]42` (some centres undefined): the TGI was > 25 µM in assay [1]; 8.48 µM in [9]; 11.7 µM in assay [2]; 13.7 µM in assay [3]; > 25 µM in assay [4]; > 25 µM in assay [6]. Also, the TGI in assay [7] is > 25 µM; in assay [10], 2.28 µM.
Consider `CC(C)(C)OC(=O)N1Cc2cc(O)ccc2C[C@H]1C(=O)O`, for which the TGI in assay [1], in assay [2], in assay [3], in [4], in assay [6] and in [7] was > 100 µM each time. Moreover, the TGI in [10] and in assay [8] was > 100 µM throughout.
Turning to `CO[C@H]1C[C@H](n2cc(C)c(=O)[nH]c2=O)O[C@@H]1CO`, the TGI in assay [1], in assay [9], in assay [2], in assay [4], in assay [5] and in assay [6] was > 100 µM each time. For the same compound, the TGI in [10] and in [8] was > 100 µM throughout.
Consider `CC1C2CC(CC2N)C1(C)C` (centres undefined), for which the TGI in assay [1], in assay [9], in assay [2], in [3], in assay [4] and in [6] was > 100 µM each time. The TGI in assay [10] and in assay [8] was > 100 µM in each case.
Turning to `C=C1C(=O)O[C@@H]2OC3(C)CCC4C(C)CCC1C42OO3` (some centres undefined), the TGI is 24.7 µM in [1]; 27.2 µM and 24.2 µM in assay [2]; 3.88 µM and 3.16 µM in assay [3]; 32.4 µM and 26 µM in assay [4]; 18.1 µM and 11.6 µM in assay [6]; 15.4 µM and 5.51 µM in assay [7]. For the same compound, the TGI in assay [8] is 13.6 µM and 10.8 µM. The GI50 was 0.573 µM in assay [5], 4.56 µM in assay [6], 3.79 µM in assay [7] and 3.44 µM in assay [8].
`CNC(=O)c1ccccc1[S+]1c2cccc3cccc(c23)C(=O)N1C` (centres undefined): the TGI in [1], in assay [9], in [2], in assay [3], in assay [4] and in assay [5] was > 100 µM in each case. Further, the TGI in assay [6], in assay [7] and in assay [8] was > 100 µM throughout.
`O=C(Cc1ccccc1)N=Nc1c(O)[nH]c2ccccc12`: the TGI in [1] was > 100 µM; in [9], > 100 µM; in assay [2] it was > 100 µM; in assay [3], > 100 µM; in [4], > 100 µM; in assay [6], 70.7 µM. Moreover, the TGI in [7] and in [10] was > 100 µM throughout.
For the compound `CC1(C)O[C@H]2OC(CO)C(OS(C)(=O)=O)[C@H]2O1` (some centres undefined), the TGI in [1], in assay [9], in assay [3], in assay [5], in assay [6] and in assay [7] was > 100 µM in each case. For the same compound, the TGI in assay [8] was > 100 µM.
Consider `C=CC[N+](CCO)(CCO)CCCCCCCCCCCCCCCCCC`, for which the TGI in assay [1] turned out to be 47.7 µM; in assay [2] it was 28.7 µM; in [3], 13.5 µM; in assay [4], 16.4 µM; in assay [5] it was 5.45 µM; in [6], 13.3 µM. For the same compound, the TGI in assay [7] came to 32.7 µM; in assay [8], 22.2 µM.
Regarding `COc1cc(/C=c2/c3ccccc3n3c2cc(-c2ccccc2)[n+]3C)cc(OC)c1OC`, the TGI is 22.4 µM in assay [1]; > 35.8 µM in assay [9]; 32.8 µM in assay [2]; 9.6 µM in assay [3]; 8.61 µM in assay [4]; > 32.1 µM in assay [5]. The TGI in [6] is 22.9 µM; in [7], 8.06 µM; in [8] it was 14.5 µM.
`O=S(=O)(O)c1cc(Nc2ccnc3ccccc23)c2c(S(=O)(=O)O)cc(S(=O)(=O)O)cc2c1`: the TGI in assay [1], in assay [9], in assay [2], in assay [3], in assay [4] and in [5] was > 100 µM throughout. The TGI in [6], in [7] and in [8] was > 100 µM throughout.
In the case of `C=CCCC(On1c(-c2ccc(Cl)cc2)csc1=S)c1ccccc1` (centres undefined), the TGI in assay [1] was > 100 µM; in assay [9], > 100 µM; in assay [2] it was 81.8 µM; in assay [3] it was 71.7 µM; in [4], > 100 µM; in [5] it was > 100 µM. For the same compound, the TGI in assay [6], in assay [7] and in assay [8] was > 100 µM throughout.
In the case of `CCC/C(Cl)=N\OC(=O)Nc1ccc(F)c([N+](=O)[O-])c1`, the TGI in assay [1] was 29.9 µM; in [9], 30.4 µM; in assay [2], 55.7 µM; in assay [3], 4.3 µM; in [4], 28.9 µM; in assay [5] it was > 100 µM. Also, the TGI in assay [6] worked out at 29.2 µM; in [7], 27.3 µM; in assay [8], 39.6 µM.
As for `CCOC(=O)c1nc2cc(C(F)(F)F)ccc2nc1Nc1ccc(F)cc1`, the TGI is > 100 µM in [1]; > 100 µM in assay [9]; > 100 µM in assay [2]; 86.1 µM in assay [4]; 61.6 µM in assay [5]; > 100 µM in assay [6]. The TGI in [7] and in [8] was > 100 µM each time.
Take `CC(NC(=O)C(Cc1cnc[nH]1)NC(=O)C1CCC(=O)N1)C(N)=O` (stereo not drawn) ([pGlu]-His-Ala-NH2; configuration not given here): the TGI in assay [1], in [9], in [2], in [5], in assay [6] and in assay [10] was > 100 µM each time. The TGI in [8] was > 100 µM.
Turning to `COC(=O)c1c(O)ccc2c1c1c(n2Cc2ccccc2OC)C(=O)c2ccccc2C1`, the TGI in assay [9] was > 100 µM; in assay [2] it was > 100 µM; in assay [4], 87.9 µM; in [5], 72.2 µM; in assay [6] it was > 100 µM; in assay [7], > 100 µM. The TGI in [10] and in assay [8] was > 100 µM each time.
Take `CC1=Nc2c(C#N)ncn2N=C(C)C1`: the TGI in [9], in [2], in [4], in assay [5], in assay [6] and in assay [7] was > 100 µM throughout. In addition, the TGI in assay [10] and in [8] was > 100 µM in each case.
On to `CCOC(=O)C1=CC(C)(C(=O)OCC)Nc2c(nc(SC)n(C)c2=O)N1` (centres undefined), for which the TGI in assay [1], in assay [9], in assay [2], in [3], in assay [4] and in assay [5] was > 10 µM throughout. Moreover, the TGI in [6], in assay [7] and in [8] was > 10 µM in each case.
Take `Cn1cc(-c2nc(-c3c[nH]c4ccncc34)cs2)c2cc(F)ccc21`: the GI50 was 1.72 µM in assay [1]; 1.79 µM in [9]; 1.92 µM in assay [2]; 1.67 µM in assay [3]; 1.74 µM in assay [6]; 1.92 µM in assay [7]. Also, the GI50 in assay [8] was 1.65 µM. In addition, the TGI worked out at 3.32 µM in [1]; 3.37 µM in assay [9]; 3.9 µM in assay [2]; 3.23 µM in assay [3]; 3.44 µM in [6]; 3.58 µM in assay [7]. This compound also registered a TGI in [8] of 3.4 µM.
With `Cc1c(O)c(=O)ccn1CCc1c[nH]c2ccccc12`, the TGI in assay [1] was 91.7 µM; in assay [9], 40.2 µM; in assay [5], 29.8 µM; in assay [6], 8.77 µM; in assay [10] it was 49.2 µM; in assay [8], > 100 µM.
Take `C[C@H](CN1CC(=O)NC(=O)C1)N1CC(=O)NC(=O)C1`: the TGI in [1] is > 100 µM; in assay [2], > 100 µM; in [3], > 71.2 µM; in [4], > 100 µM; in assay [5], > 100 µM; in assay [6], > 100 µM. Besides, in [8], the TGI is > 84.4 µM.
As for `COc1cc([C@@H]2c3cc4c(cc3[C@@H](N=Cc3ccc(C(=O)O[C@@H](C(=O)O[C@H]5C[C@@]6(O)[C@@H](OC(=O)c7ccccc7)[C@@H]7[C@]8(OC(C)=O)CO[C@@H]8C[C@H](O)[C@@]7(C)C(=O)[C@H](OC(C)=O)C(=C5C)C6(C)C)[C@@H](NC(=O)c5ccccc5)c5ccccc5)cc3)[C@H]3COC(=O)[C@H]23)OCO4)cc(OC)c1O`, the TGI was > 47 µM in assay [1]; > 50 µM in [9]; > 50 µM in assay [3]; > 50 µM in [4]; > 50 µM in assay [6]; > 50 µM in [8].
`COc1ccc(/C=N\NC(=O)Nc2cccc3ccccc23)cc1`: the TGI in assay [1] was 95.2 µM; in assay [9], > 100 µM; in assay [2], 83.7 µM; in assay [3], > 100 µM; in [4], 43.2 µM; in assay [5], > 100 µM. In addition, the TGI in [6] was > 100 µM; in [7], 43.7 µM; in assay [8], > 100 µM.
For `COc1nc2ccc(CNc3ccc(C(=O)O)cc3)cc2nc1OC`, the TGI in assay [1], in assay [9], in assay [2], in assay [3], in assay [4] and in assay [5] was > 10 µM in each case. Also, the TGI in assay [6], in assay [7] and in [8] was > 10 µM in each case.
